The values that follow come from patent publication US8008319B2, “Treatment of colorectal polyps with imidazoquinoline derivatives” (Meda Pharma GmbH & Co. KG, priority 2008, dated 2011).

One assay deals with p53. As to conditions: patients with Actinic Keratoses; under imiquimod therapy; cited from earlier work.
The subject of the next assay is MC-26 colon carcinoma. Particulars: mice; oral treatment; cited from earlier work.
The test system of assay [1] is p53 expression in Caco-2 cells. Put plainly: p53 mRNA expression in Caco-2 cells by quantitative real-time RT-PCR. It is filed as cell-based. How it is done:
Imiquimod was dissolved in dimethyl sulfoxide (DMSO). Stock concentration was 10 mg/ml. From these stocks stepwise dilutions were prepared. […] The final concentration of DMSO was 0.1%.
The colorectal adenocarcinoma cell line Caco-2 was obtained from ATCC [American Type Culture Collection], Wesel, Germany. The cells were plated in 24-well plates (BD Bioscience, Heidelberg, Germany). The cells were cultured in DMEM supplemented with 10% heat-inactivated foetal bovine serum and 10% non essential amino acids in a humidified atmosphere containing 5% CO2 at 37° C. When confluent, the cells were washed and resuspended in serum-free Dulbecco's Modified Eagle Medium (DMEM) at 10^6 cells ml^−1. […]
RNA was prepared from frozen lysates using RNeasy, Qiagen (Hilden, Germany). One-tube Reverse Transcriptase-Polymerase Chain Reaction (RT-PCR) was performed using Quantitect Probe RT-PCR Kit from QIAGEN (Hilden, Germany). Expression of p53 was determined in relation to beta-actin by real time RT-PCR using SYBR Green assays on an ABI Prism 7900. […] Quantity of mRNA was calculated using […] method. For each RT-PCR the threshold cycle (CT) was determined, being defined as the cycle at which the fluorescence exceeds 10 times the standard deviation of the mean baseline emission for cycles 3 to 10. β-actin was used as a housekeeping gene to normalize mRNA levels: Ct (Parameter)−Ct (β-actin)=ΔCt (Parameter). […]
A general note: Quantitative PCR measures a nucleic acid by following its amplification.

Turning to `CC(C)Cn1cnc2c(N)nc3ccccc3c21` [imiquimod, 1-(2-methylpropyl)-1H-imidazo[4,5-c]quinolin-4-amine], the “gene expression for p53” value with p53 was “no differences in gene expression for p53 were found”. In addition, the “development of MC-26 colon carcinoma” value in the assay with MC-26 colon carcinoma is “significantly inhibited the development of MC-26 colon carcinoma”. In addition, the “statistical significance of increase in p53 mRNA levels” value in assay [1] (10 and 100 μM imiquimod, one-way ANOVA with Dunnett's post-hoc) is “reached statistical significance”. For the same compound, in assay [1] (concentrations up to 100 μM, FIG. 1), the “p53 mRNA expression (relative to beta-actin and vehicle control)” value was “increases p53 mRNA expression dose dependently”.
